The values that follow come from the supplement of paper PMC10307832.

One experiment concerns HCC-366. The experiment can be described thus: relative viability (nuclei count vs DMSO), 5 days (fraction); higher = more cells survive. The settings on record: first compound 0.6325 µM. The method in brief:
(§1)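 Relative viability was taken as the ratio of nuclei in treated wells to nuclei in vehicle wells. Lung cancer cell lines in 1536-well plates received compounds by pin tool one day after seeding, either one drug alone or a fixed anchor-drug dose plus five library-drug doses (not always all listed) in √10 steps. Nuclei were counted on 4× images after 5 days of treatment, and values are medians of duplicate plates.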
For `COCC1(CO)C(=O)C2CCN1CC2` (centres undefined) [PRIMA-1MET] + COc1cccc2cc(-c3nc([C@H]4CC[C@H](C(=O)O)CC4)n4ncnc(N)c34)[nH]c12 [OSI-027] (partner 0.5 µM), the relative viability turned out to be 0.725.
The same measure, in the same setting: the value for `COCC1(CO)C(=O)C2CCN1CC2` (centres undefined) [PRIMA-1MET] + N=C(N)NC(=N)NCCc1ccccc1 [Phenformin] (partner 250 µM) was 0.611; that for `COCC1(CO)C(=O)C2CCN1CC2` (centres undefined) [PRIMA-1MET] + Cc1nc(Nc2ncc(C(=O)Nc3c(C)cccc3Cl)s2)cc(N2CCN(CCO)CC2)n1 [Dasatinib] (partner 0.075 µM) was 0.527.

The experiment is the same for the next values; noted with them: first compound 2 µM.
On to `COCC1(CO)C(=O)C2CCN1CC2` (centres undefined) [PRIMA-1MET] + Cc1cc(Nc2cc(N3CCN(C)CC3)nc(Sc3ccc(NC(=O)C4CC4)cc3)n2)n[nH]1 [Tozasertib] (partner 0.1 µM), for which the relative viability was determined as 0.107.
On the same count and under the same terms, the same measure for `COCC1(CO)C(=O)C2CCN1CC2` (centres undefined) [PRIMA-1MET] + COc1cc2c(Oc3ccc(NC(=O)C4(C(=O)Nc5ccc(F)cc5)CC4)cc3F)ccnc2cc1OCCCN1CCOCC1 [Foretinib] (partner 0.25 µM): 0.826; for `COCC1(CO)C(=O)C2CCN1CC2` (centres undefined) [PRIMA-1MET] + COc1cccc2cc(-c3nc([C@H]4CC[C@H](C(=O)O)CC4)n4ncnc(N)c34)[nH]c12 [OSI-027] (partner 0.5 µM): 0.303.
Same read-out and setting: the same measure for `COCC1(CO)C(=O)C2CCN1CC2` (centres undefined) [PRIMA-1MET] + N=C(N)NC(=N)NCCc1ccccc1 [Phenformin] (partner 250 µM): 0.484.
In the case of `COCC1(CO)C(=O)C2CCN1CC2` (centres undefined) [PRIMA-1MET] + Cc1nc(Nc2ncc(C(=O)Nc3c(C)cccc3Cl)s2)cc(N2CCN(CCO)CC2)n1 [Dasatinib] (partner 0.075 µM), the relative viability turned out to be 0.619.

Staying with this experiment, now noted: first compound 6.325 µM.
With `COCC1(CO)C(=O)C2CCN1CC2` (centres undefined) [PRIMA-1MET] + Cc1cc(Nc2cc(N3CCN(C)CC3)nc(Sc3ccc(NC(=O)C4CC4)cc3)n2)n[nH]1 [Tozasertib] (partner 0.1 µM), the relative viability came out at 0.209.
For the molecule `COCC1(CO)C(=O)C2CCN1CC2` (centres undefined) [PRIMA-1MET] + COc1cc2c(Oc3ccc(NC(=O)C4(C(=O)Nc5ccc(F)cc5)CC4)cc3F)ccnc2cc1OCCCN1CCOCC1 [Foretinib] (partner 0.25 µM), the relative viability turned out to be 0.974.
Still for that read-out and setting: the value for `COCC1(CO)C(=O)C2CCN1CC2` (centres undefined) [PRIMA-1MET] + COc1cccc2cc(-c3nc([C@H]4CC[C@H](C(=O)O)CC4)n4ncnc(N)c34)[nH]c12 [OSI-027] (partner 0.5 µM) was 1.01; that for `COCC1(CO)C(=O)C2CCN1CC2` (centres undefined) [PRIMA-1MET] + N=C(N)NC(=N)NCCc1ccccc1 [Phenformin] (partner 250 µM) was 0.633; that for `COCC1(CO)C(=O)C2CCN1CC2` (centres undefined) [PRIMA-1MET] + Cc1nc(Nc2ncc(C(=O)Nc3c(C)cccc3Cl)s2)cc(N2CCN(CCO)CC2)n1 [Dasatinib] (partner 0.075 µM) was 0.67.

The experiment is the same for the next values; noted with them: first compound 20 µM.
The molecule `COCC1(CO)C(=O)C2CCN1CC2` (centres undefined) [PRIMA-1MET] + Cc1cc(Nc2cc(N3CCN(C)CC3)nc(Sc3ccc(NC(=O)C4CC4)cc3)n2)n[nH]1 [Tozasertib] (partner 0.1 µM) displayed a relative viability of 0.0297.
Same read-out and setting: the same measure for `COCC1(CO)C(=O)C2CCN1CC2` (centres undefined) [PRIMA-1MET] + COc1cc2c(Oc3ccc(NC(=O)C4(C(=O)Nc5ccc(F)cc5)CC4)cc3F)ccnc2cc1OCCCN1CCOCC1 [Foretinib] (partner 0.25 µM): 0.207; for `COCC1(CO)C(=O)C2CCN1CC2` (centres undefined) [PRIMA-1MET] + COc1cccc2cc(-c3nc([C@H]4CC[C@H](C(=O)O)CC4)n4ncnc(N)c34)[nH]c12 [OSI-027] (partner 0.5 µM): 0.927.
Still for that read-out and setting: the same measure for `COCC1(CO)C(=O)C2CCN1CC2` (centres undefined) [PRIMA-1MET] + N=C(N)NC(=N)NCCc1ccccc1 [Phenformin] (partner 250 µM): 0.462; for `COCC1(CO)C(=O)C2CCN1CC2` (centres undefined) [PRIMA-1MET] + Cc1nc(Nc2ncc(C(=O)Nc3c(C)cccc3Cl)s2)cc(N2CCN(CCO)CC2)n1 [Dasatinib] (partner 0.075 µM): 0.318.

The subject of another experiment is NCI-H1915. The experiment is described as above. The settings on record: first compound 0.2 µM. In a few lines:
as §1
The molecule `COCC1(CO)C(=O)C2CCN1CC2` (centres undefined) [PRIMA-1MET] + Cc1cc(Nc2cc(N3CCN(C)CC3)nc(Sc3ccc(NC(=O)C4CC4)cc3)n2)n[nH]1 [Tozasertib] (partner 0.1 µM) showed a relative viability of 0.444.
The same measure, in the same setting: the value for `COCC1(CO)C(=O)C2CCN1CC2` (centres undefined) [PRIMA-1MET] + COc1cc2c(Oc3ccc(NC(=O)C4(C(=O)Nc5ccc(F)cc5)CC4)cc3F)ccnc2cc1OCCCN1CCOCC1 [Foretinib] (partner 0.25 µM) was 1.12; that for `COCC1(CO)C(=O)C2CCN1CC2` (centres undefined) [PRIMA-1MET] + COc1cccc2cc(-c3nc([C@H]4CC[C@H](C(=O)O)CC4)n4ncnc(N)c34)[nH]c12 [OSI-027] (partner 0.5 µM) was 0.475; that for `COCC1(CO)C(=O)C2CCN1CC2` (centres undefined) [PRIMA-1MET] + N=C(N)NC(=N)NCCc1ccccc1 [Phenformin] (partner 250 µM) was 0.44.
In turn, `COCC1(CO)C(=O)C2CCN1CC2` (centres undefined) [PRIMA-1MET] + Cc1nc(Nc2ncc(C(=O)Nc3c(C)cccc3Cl)s2)cc(N2CCN(CCO)CC2)n1 [Dasatinib] (partner 0.075 µM) had a relative viability of 0.328.

The same experiment, now with this note: first compound 0.6325 µM.
Regarding `COCC1(CO)C(=O)C2CCN1CC2` (centres undefined) [PRIMA-1MET] + Cc1cc(Nc2cc(N3CCN(C)CC3)nc(Sc3ccc(NC(=O)C4CC4)cc3)n2)n[nH]1 [Tozasertib] (partner 0.1 µM), the relative viability stood at 0.368.
On the same count and under the same terms, the value for `COCC1(CO)C(=O)C2CCN1CC2` (centres undefined) [PRIMA-1MET] + COc1cc2c(Oc3ccc(NC(=O)C4(C(=O)Nc5ccc(F)cc5)CC4)cc3F)ccnc2cc1OCCCN1CCOCC1 [Foretinib] (partner 0.25 µM) was 0.958; that for `COCC1(CO)C(=O)C2CCN1CC2` (centres undefined) [PRIMA-1MET] + COc1cccc2cc(-c3nc([C@H]4CC[C@H](C(=O)O)CC4)n4ncnc(N)c34)[nH]c12 [OSI-027] (partner 0.5 µM) was 0.582; that for `COCC1(CO)C(=O)C2CCN1CC2` (centres undefined) [PRIMA-1MET] + N=C(N)NC(=N)NCCc1ccccc1 [Phenformin] (partner 250 µM) was 0.345.
Same read-out and setting: the same measure for `COCC1(CO)C(=O)C2CCN1CC2` (centres undefined) [PRIMA-1MET] + Cc1nc(Nc2ncc(C(=O)Nc3c(C)cccc3Cl)s2)cc(N2CCN(CCO)CC2)n1 [Dasatinib] (partner 0.075 µM): 0.284.

The experiment is the same for the next values; noted with them: first compound 6.325 µM.
On to `COCC1(CO)C(=O)C2CCN1CC2` (centres undefined) [PRIMA-1MET] + Cc1cc(Nc2cc(N3CCN(C)CC3)nc(Sc3ccc(NC(=O)C4CC4)cc3)n2)n[nH]1 [Tozasertib] (partner 0.1 µM), for which the relative viability worked out at 0.389.
